We go through three molecules from publication PMC6421704 (Journal of Experimental & Clinical Cancer Research : CR, 2019).

For data set [1], the system named is TrkB signaling. Put plainly: BDNF-induced TrkB signaling in HepG2 cells (Western blot). Format: cell-based, human. Conditions: HepG2, Crizotinib (0.5 μM) pretreated 2 h, BDNF 50 ng/ml. A general note: In western blotting, separated proteins are transferred to a membrane and probed.
Method: Data are shown as the mean ± S.D. and are representative of three independent experiments. ** p < 0.01, *** p < 0.001.
(b) HepG2 cells were treated with BDNF (10 ng/ml) alone or BDNF (10 ng/ml) and HGF (10 ng/ml) for the indicated time and the activation of TrkB signaling pathway was examined. […] The activation of the TrkB and c-Met signaling pathways were examined. […] The activation of the TrkB and c-Met signaling pathways were examined. […] Data are shown as the mean ± S.D. and are representative of three independent experiments. **p < 0.01, ***p < 0.001
(§1) For western blots, cells were lysed with M-PER? Mammalian Protein Extraction Reagent (Pierce, Rockford, IL, USA). Then, western blot analysis was performed according to standard procedures. Chemiluminescent detection was conducted using supersignal substrate (Pierce) according to the manufacturer’s specifications.
For data set [2], the system named is HepG2 cells. The data set is described as follows: HepG2 cell growth with Crizotinib and GNF-5837. Format: cell-based. To be noted: Homo sapiens, read-out: growth inhibition rate. How it is done: The inhibition rate was calculated (right panel).
The test system of data set [3] is HepG2 cell line tumor xenografts. The data set is described as follows: HepG2 xenograft tumor model in nude mice. Format: in vivo. Conditions: Crizotinib (16 mg/kg) or GNF-5837 (16 mg/kg) alone or combined, intraperitoneally, 3 weeks.
Method: First, 2 × 10^6 HepG2 cells, 4 × 10^6 MHCC 97H cells, 4 × 10^6MHCC 97 L cells, 2 × 10^6 A549 cells, or 5 × 10^6 SMMC-7721 cells in a volume of 200 μl PBS were inoculated subcutaneously in the right flank of each mouse. Tumor growth was measured using vernier calipers, and tumor volume (mm^3) was calculated as (L × W × H)/2. When the mean tumor volume reached 200 mm^3, the mice were randomized into four groups and treatment was initiated. […] Tumor volume were recorded every 3 days until the study was terminated. The mice were sacrificed after 21 days of treatment.
The inhibition rate was calculated.
The tumor weights were measured, and the inhibition rate was calculated. Data are shown as the mean ± S.D. and are representative of three independent experiments. **p < 0.01, ***p < 0.001
For data set [4], the system named is c-Met signaling pathway. The data set is described as follows: HGF-induced c-Met signaling pathway activation in HepG2 cells (Western blot). Conditions: HepG2, GNF-5837 (4 μM) pretreated 2 h, HGF 20 ng/ml.
Method: (a) HepG2 cells were treated with HGF (10 ng/ml) alone or HGF (10 ng/ml) and BDNF (10 ng/ml) for the indicated time and the activation of c-Met signaling pathway was examined.
as §1
Data set [5] is described as follows: Body weight in liver orthotopic mouse model. The data set is classed as in vivo, mice. Conditions: sorafenib treatment, mice.
Data set [6] deals with MHCC97H orthotopic tumors. To be noted: 50 mg/kg Sorafenib once daily by oral gavage.
From the text: For the orthotopic xenograft mouse model, MHCC97H cells were inoculated subcutaneously in the right flank of each SCID mouse. When the tumor volumes reached approximately 1 cm^3, the mice were sacrificed, and the tumors were isolated and cut into 1 mm^3 pieces. The mice were anesthetized by an intraperitoneal injection of 1% sodium pentobarbital solution. A 1-cm longitudinal skin incision was made on the right upper axillary region of the abdomen of the mouse, the peritoneum was opened and the liver was exposed. The liver was punctured by a needle, and a 1 mm^3 tumor piece was implanted. The liver was put back into the abdominal cavity gently, and the surgical opening was closed using a 5–0 surgical suture.
The tumor weights were measured (b). […] Tumor-bearing mice were sacrificed when they became moribund.

One may read the inhibition as the relative decrease from the control value, in per cent. In the case of `C[C@@H](Oc1cc(-c2cnn(C3CCNCC3)c2)cnc1N)c1c(Cl)ccc(F)c1Cl` [Crizotinib], in data set [1], the “BDNF-induced TrkB signaling pathway activation” value is on record as “significant attenuation”. In data set [2] (HepG2, 100 nM Crizotinib, 48 h), the inhibition at 0.1 µM stood at 30%. For the same molecule, the “inhibition rate (tumor weight)” value in data set [3] is 28%.

Take `Cc1ccc(NC(=O)Nc2cc(C(F)(F)F)ccc2F)cc1Nc1ccc2c(c1)NC(=O)/C2=C\c1ccc[nH]1` [GNF-5837]: the inhibition at 2 µM in data set [2] (HepG2, 2 μM GNF-5837, 48 h) came out at 14%. Besides, the “HGF-induced c-Met signaling pathway activation” value in data set [4] is “suppressed”. Moreover, the “inhibition rate (tumor weight)” value in data set [3] was 21%.

On to `CNC(=O)c1cc(Oc2ccc(NC(=O)Nc3ccc(Cl)c(C(F)(F)F)c3)cc2)ccn1` [Sorafenib, reference compound], for which, in data set [5], the body weight loss entry is “up to 10%”. For the same molecule, the survival rate in data set [6] was 44%.
